According to paper PMC9629815, “MK256 is a novel CDK8 inhibitor with potent antitumor activity in AML through downregulation of the STAT pathway” (Oncotarget, 2022):

Assays:
[1] = molecular target: CDK1/cyclin B (Homo sapiens, UniProt P06493); assay: CDK panel kinase inhibition; type: biochemical; conditions: read-out: Percentage of inhibition (%)
Source text: (§1) MK256 was synthesized in house. The kinase profiling of MK256 against various targets was done using the SelectScreen Kinase Profiling Services provided by ThermoFisher Scientific (Walham WA, USA). https://www.thermofisher.com/us/en/home/products-and-services/services/custom-services/screening-and-profiling-services/selectscreen-profiling-service/selectscreen-kinase-profiling-service.html.

[2] = molecular target: CDK13/cyclin K (Homo sapiens, UniProt Q14004); assay: CDK panel kinase inhibition; type: biochemical; conditions: read-out: Percentage of inhibition (%)
Source text: as §1

[3] = molecular target: CDK14 (PFTK1)/cyclin Y (Homo sapiens, UniProt O94921); assay: CDK panel kinase inhibition; type: biochemical; conditions: read-out: Percentage of inhibition (%)
Source text: as §1

[4] = molecular target: CDK16 (PCTK1)/cyclin Y (Homo sapiens, UniProt Q00536); assay: CDK panel kinase inhibition; type: biochemical; conditions: read-out: Percentage of inhibition (%)
Source text: as §1

[5] = molecular target: CDK17/cyclin Y (Homo sapiens, UniProt Q00537); assay: CDK panel kinase inhibition; type: biochemical; conditions: read-out: Percentage of inhibition (%)
Source text: as §1

[6] = molecular target: CDK18/cyclin Y (Homo sapiens, UniProt Q07002); assay: CDK panel kinase inhibition; type: biochemical; conditions: read-out: Percentage of inhibition (%)
Source text: as §1

[7] = molecular target: CDK2/cyclin A (Homo sapiens, UniProt P24941); assay: CDK panel kinase inhibition; type: biochemical; conditions: read-out: Percentage of inhibition (%)
Source text: as §1

[8] = molecular target: CDK2/cyclin E1 (Homo sapiens, UniProt P24941); assay: CDK panel kinase inhibition; type: biochemical; conditions: read-out: Percentage of inhibition (%)
Source text: as §1

[9] = molecular target: CDK3/cyclin E1 (Homo sapiens, UniProt Q00526); assay: CDK panel kinase inhibition; type: biochemical; conditions: read-out: Percentage of inhibition (%)
Source text: as §1

[10] = molecular target: CDK4/cyclin D1 (Homo sapiens, UniProt P11802); assay: CDK panel kinase inhibition; type: biochemical; conditions: read-out: Percentage of inhibition (%)
Source text: as §1

[11] = molecular target: CDK4/cyclin D3 (Homo sapiens, UniProt P11802); assay: CDK panel kinase inhibition; type: biochemical; conditions: read-out: Percentage of inhibition (%)
Source text: as §1

[12] = molecular target: CDK5 (Inactive) (Homo sapiens, UniProt Q00535); assay: CDK panel kinase inhibition; type: biochemical; conditions: read-out: Percentage of inhibition (%)
Source text: as §1

[13] = molecular target: CDK5/p25 (Homo sapiens, UniProt Q00535); assay: CDK panel kinase inhibition; type: biochemical; conditions: read-out: Percentage of inhibition (%)
Source text: as §1

[14] = molecular target: CDK5/p35 (Homo sapiens, UniProt Q00535); assay: CDK panel kinase inhibition; type: biochemical; conditions: read-out: Percentage of inhibition (%)
Source text: as §1

[15] = molecular target: CDK6/cyclin D1 (Homo sapiens, UniProt Q00534); assay: CDK panel kinase inhibition; type: biochemical; conditions: read-out: Percentage of inhibition (%)
Source text: as §1

[16] = molecular target: CDK7/cyclin H/MNAT1 (Homo sapiens, UniProt P50613); assay: CDK panel kinase inhibition; type: biochemical; conditions: read-out: Percentage of inhibition (%)
Source text: as §1

[17] = molecular target: CDK9/cyclin K (Homo sapiens, UniProt P50750); assay: CDK panel kinase inhibition; type: biochemical; conditions: read-out: Percentage of inhibition (%)
Source text: as §1

[18] = molecular target: CDK9/cyclin T1 (Homo sapiens, UniProt P50750); assay: CDK panel kinase inhibition; type: biochemical; conditions: read-out: Percentage of inhibition (%)
Source text: as §1

[19] = MDCK-MDR1 permeability assay; type: in vitro ADME; conditions: dog, MDCK-MDR1
Protocol: (§2) MDCK-MDR1 cells were plated into 96-well Millipore Millicell-96 plates at 7,500 cells/75 μL/well and incubated for three days at 37°C with 5% CO2. Cells were washed with Hank’s Balanced Salt Solution (HBSS) with 5 mM HEPES for 30 minutes before the experiment began. MK256 was prepared by diluting DMSO stock into HBSS buffer, resulting in a final DMSO concentration of 0.1%. Prior to the experiment, cell monolayer integrity was verified by […] electrical resistance (TEER). The transport experiment was initiated by adding MK256 to the apical (75 μL) or basal (250 μL) side. Transport plates were incubated at 37°C in a humidified incubator with 5% CO2. Samples were taken from the donor and acceptor compartments after one hour and analyzed by liquid chromatography with tandem mass spectrometry (LC/MS/MS). Digoxin was used as reference control. Apparent permeability (Papp) values were calculated using the following equation: Papp = (dQ/dt)/A/C0, where dQ/dt is the initial rate of amount of test compound transported across the cell monolayer, A is the surface area of the filter membrane, and C0 is the initial concentration of the test compound, calculated for each direction using a 4-point calibration curve by LC/MS/MS. Net flux ratio between the two directional transports was calculated by the following equation: Ratio = Papp, B-A/Papp, A-B, where Papp, B-A and Papp, A-B represent the apparent permeability of test compound from the basal-to-apical and apical-to-basal side of the cellular monolayer, respectively. Recovery was calculated based on the compound concentration at the end of the experiment, compared to that at the beginning of the experiment, adjusted for volumes.

[20] = tested on: MDCK-MDR1 cells; assay: MDCK-MDR1 permeability assay; type: in vitro ADME; conditions: 5 μM
Protocol: as §2

[21] = tested on: MDR1; assay: MDCK-MDR1 permeability assay; type: in vitro ADME; conditions: dog, MDCK-MDR1, read-out: Efflux Ratio (B-A/A-B)
Protocol: as §2

CDK16 (PCTK1)/cyclin Y, sequence (Q00536 whole entry): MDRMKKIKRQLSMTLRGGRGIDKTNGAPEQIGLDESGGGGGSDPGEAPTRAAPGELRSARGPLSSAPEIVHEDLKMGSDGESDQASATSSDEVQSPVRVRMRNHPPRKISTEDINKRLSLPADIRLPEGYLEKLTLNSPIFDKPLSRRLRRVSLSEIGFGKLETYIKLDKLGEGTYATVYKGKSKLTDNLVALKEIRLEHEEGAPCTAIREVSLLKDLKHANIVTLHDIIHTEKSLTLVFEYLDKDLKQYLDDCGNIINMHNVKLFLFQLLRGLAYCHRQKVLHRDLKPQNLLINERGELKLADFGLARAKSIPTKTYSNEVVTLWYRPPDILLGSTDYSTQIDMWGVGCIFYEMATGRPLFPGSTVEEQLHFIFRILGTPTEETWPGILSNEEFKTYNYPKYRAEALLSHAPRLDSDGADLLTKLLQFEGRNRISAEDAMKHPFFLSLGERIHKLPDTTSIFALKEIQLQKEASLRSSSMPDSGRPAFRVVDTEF
CDK16 (PCTK1)/cyclin Y, sequence (Q8ND76 whole entry partner): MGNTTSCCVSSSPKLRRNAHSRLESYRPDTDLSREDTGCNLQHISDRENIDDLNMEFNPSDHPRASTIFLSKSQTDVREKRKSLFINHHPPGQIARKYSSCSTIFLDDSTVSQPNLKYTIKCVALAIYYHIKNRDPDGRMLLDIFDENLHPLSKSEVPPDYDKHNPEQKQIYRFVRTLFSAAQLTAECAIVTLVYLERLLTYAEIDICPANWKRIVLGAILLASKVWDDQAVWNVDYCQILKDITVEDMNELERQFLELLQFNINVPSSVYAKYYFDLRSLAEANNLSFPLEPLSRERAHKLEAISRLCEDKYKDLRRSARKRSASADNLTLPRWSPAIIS
CDK13/cyclin K, sequence (Q14004 whole entry): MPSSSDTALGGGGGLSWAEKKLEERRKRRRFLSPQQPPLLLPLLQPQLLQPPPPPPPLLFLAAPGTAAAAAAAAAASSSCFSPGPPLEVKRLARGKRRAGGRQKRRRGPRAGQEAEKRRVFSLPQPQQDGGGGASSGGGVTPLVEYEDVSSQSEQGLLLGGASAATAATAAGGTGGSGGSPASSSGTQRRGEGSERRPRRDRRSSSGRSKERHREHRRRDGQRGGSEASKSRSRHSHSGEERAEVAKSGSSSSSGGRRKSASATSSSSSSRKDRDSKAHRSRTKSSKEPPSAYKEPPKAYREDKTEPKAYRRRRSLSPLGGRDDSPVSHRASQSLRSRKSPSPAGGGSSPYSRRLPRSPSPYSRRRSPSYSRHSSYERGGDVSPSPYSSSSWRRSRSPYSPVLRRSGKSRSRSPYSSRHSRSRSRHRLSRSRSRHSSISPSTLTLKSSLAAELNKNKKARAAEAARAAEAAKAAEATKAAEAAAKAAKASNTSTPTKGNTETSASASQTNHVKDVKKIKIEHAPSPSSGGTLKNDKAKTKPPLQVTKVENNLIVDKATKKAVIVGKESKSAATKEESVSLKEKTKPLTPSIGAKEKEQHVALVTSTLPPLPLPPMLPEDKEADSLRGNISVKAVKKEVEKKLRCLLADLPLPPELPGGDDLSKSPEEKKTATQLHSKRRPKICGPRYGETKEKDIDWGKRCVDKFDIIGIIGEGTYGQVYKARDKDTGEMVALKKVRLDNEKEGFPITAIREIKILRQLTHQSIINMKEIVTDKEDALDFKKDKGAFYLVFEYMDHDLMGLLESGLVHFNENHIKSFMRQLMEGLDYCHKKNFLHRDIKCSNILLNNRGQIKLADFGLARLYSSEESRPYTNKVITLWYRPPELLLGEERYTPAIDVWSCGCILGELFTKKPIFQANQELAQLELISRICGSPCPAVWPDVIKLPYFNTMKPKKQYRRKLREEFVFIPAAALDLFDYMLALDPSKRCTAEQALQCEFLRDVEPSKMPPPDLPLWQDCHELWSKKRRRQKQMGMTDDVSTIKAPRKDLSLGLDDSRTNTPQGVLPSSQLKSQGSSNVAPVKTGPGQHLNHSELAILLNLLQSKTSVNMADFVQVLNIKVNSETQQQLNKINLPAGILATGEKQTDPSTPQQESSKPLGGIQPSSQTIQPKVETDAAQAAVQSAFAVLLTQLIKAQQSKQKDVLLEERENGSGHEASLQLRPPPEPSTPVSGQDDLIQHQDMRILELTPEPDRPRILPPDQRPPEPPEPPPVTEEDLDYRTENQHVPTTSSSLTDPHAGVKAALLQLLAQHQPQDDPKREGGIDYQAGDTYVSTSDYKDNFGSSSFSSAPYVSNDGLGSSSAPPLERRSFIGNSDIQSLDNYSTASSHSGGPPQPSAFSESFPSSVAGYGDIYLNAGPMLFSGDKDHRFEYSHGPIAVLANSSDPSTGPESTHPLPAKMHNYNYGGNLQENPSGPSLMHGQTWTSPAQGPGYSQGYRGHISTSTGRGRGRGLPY
CDK13/cyclin K, sequence (O75909 whole entry partner): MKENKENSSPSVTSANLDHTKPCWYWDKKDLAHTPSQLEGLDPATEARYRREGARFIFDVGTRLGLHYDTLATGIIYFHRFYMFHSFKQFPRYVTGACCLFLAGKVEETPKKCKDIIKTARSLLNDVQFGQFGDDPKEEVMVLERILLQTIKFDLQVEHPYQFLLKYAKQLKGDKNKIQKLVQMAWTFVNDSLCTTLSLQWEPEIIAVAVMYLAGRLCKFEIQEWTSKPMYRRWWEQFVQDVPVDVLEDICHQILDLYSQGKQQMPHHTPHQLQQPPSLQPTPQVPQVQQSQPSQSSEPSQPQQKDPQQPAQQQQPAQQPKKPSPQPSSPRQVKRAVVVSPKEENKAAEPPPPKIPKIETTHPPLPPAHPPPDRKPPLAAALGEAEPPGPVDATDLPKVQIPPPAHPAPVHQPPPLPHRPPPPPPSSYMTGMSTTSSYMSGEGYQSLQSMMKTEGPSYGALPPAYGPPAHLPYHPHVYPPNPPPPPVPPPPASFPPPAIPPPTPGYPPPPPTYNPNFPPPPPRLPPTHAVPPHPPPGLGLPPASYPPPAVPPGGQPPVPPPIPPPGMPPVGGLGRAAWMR
CDK5/p25, sequence (Q00535 whole entry): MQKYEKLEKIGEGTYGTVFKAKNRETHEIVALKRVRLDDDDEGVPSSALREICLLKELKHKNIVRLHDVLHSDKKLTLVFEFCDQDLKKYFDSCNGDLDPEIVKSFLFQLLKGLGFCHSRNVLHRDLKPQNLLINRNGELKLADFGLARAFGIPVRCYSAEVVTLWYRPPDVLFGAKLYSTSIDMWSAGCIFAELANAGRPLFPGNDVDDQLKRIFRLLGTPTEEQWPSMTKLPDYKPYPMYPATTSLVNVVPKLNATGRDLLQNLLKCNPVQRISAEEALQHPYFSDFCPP
CDK5/p25, sequence (Q15078 99-307 partner limits assumed): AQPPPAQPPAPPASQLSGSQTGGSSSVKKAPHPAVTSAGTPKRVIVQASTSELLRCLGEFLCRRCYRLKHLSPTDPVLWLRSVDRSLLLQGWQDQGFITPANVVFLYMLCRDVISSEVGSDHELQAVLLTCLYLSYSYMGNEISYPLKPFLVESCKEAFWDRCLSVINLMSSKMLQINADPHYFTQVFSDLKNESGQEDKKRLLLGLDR
CDK5/p35, sequence (Q00535 whole entry): as the sequence (Q00535 whole entry) above
CDK5/p35, sequence (Q15078 2-307 partner limits assumed): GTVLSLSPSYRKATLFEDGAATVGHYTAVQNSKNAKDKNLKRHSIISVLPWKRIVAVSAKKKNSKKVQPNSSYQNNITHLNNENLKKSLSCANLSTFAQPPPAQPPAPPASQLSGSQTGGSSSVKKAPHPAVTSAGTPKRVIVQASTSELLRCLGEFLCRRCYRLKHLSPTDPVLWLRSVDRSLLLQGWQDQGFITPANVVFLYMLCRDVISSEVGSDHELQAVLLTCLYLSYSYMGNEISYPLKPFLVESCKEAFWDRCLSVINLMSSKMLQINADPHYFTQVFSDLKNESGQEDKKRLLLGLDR
CDK5 (Inactive), sequence (Q00535 whole entry): as the sequence (Q00535 whole entry) above
CDK6/cyclin D1, sequence (Q00534 whole entry): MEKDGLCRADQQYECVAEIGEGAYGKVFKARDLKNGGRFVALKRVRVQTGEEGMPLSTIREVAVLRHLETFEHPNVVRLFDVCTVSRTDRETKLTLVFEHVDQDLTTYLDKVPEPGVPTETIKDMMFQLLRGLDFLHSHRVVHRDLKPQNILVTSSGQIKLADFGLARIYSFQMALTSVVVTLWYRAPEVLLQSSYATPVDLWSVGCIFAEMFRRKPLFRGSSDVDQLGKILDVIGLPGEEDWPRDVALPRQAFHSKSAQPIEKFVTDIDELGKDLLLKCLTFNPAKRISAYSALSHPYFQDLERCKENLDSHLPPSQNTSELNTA
CDK6/cyclin D1, sequence (P24385 whole entry partner): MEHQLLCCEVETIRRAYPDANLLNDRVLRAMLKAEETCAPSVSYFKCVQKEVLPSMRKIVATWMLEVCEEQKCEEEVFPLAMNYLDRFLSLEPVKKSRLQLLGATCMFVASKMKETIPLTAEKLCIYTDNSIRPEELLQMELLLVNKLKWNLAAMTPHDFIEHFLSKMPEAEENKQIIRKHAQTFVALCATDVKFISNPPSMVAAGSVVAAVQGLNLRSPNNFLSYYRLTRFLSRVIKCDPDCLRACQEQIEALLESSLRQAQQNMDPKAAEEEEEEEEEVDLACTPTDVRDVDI

In the case of `Nc1nccc2c(Br)cc3cc(C(=O)O)ccc3c12` [MK256], the inhibition at 0.2 µM ([1]; 200 nM) is reported as 34%, the inhibition at 10 µM ([1]; 10 μM) is reported as 97% and the inhibition at 0.2 µM ([2]; 200 nM) is reported as 27%. The inhibition at 10 µM ([2]; 10 μM) was 95%, the inhibition at 0.2 µM ([3]; 200 nM) was 23% and the inhibition at 10 µM ([3]; 10 μM) was 97%. It also gave an inhibition at 0.2 µM ([4]; 200 nM) of 1%, an inhibition at 10 µM ([4]; 10 μM) of 67% and an inhibition at 0.2 µM ([5]; 200 nM) of 25%. For the same compound, the inhibition at 10 µM ([5]; 10 μM) was 94%, the inhibition at 0.2 µM ([6]; 200 nM) was 37% and the inhibition at 10 µM ([6]; 10 μM) was 98%. The inhibition at 0.2 µM ([7]; 200 nM) was 7%, the inhibition at 10 µM ([7]; 10 μM) was 85% and the inhibition at 0.2 µM ([8]; 200 nM) was 5%. It also gave an inhibition at 10 µM ([8]; 10 μM) of 70%, an inhibition at 0.2 µM ([9]; 200 nM) of 4% and an inhibition at 10 µM ([9]; 10 μM) of 82%. The inhibition at 0.2 µM ([10]; 200 nM) was 2%, the inhibition at 10 µM ([10]; 10 μM) was 23% and the inhibition at 0.2 µM ([11]; 200 nM) was -3%. The inhibition at 10 µM ([11]; 10 μM) was 23%, the inhibition at 0.2 µM ([12]; 200 nM) was 7% and the inhibition at 10 µM ([12]; 10 μM) was 70%. It also gave an inhibition at 0.2 µM ([13]; 200 nM) of 2%, an inhibition at 10 µM ([13]; 10 μM) of 89% and an inhibition at 0.2 µM ([14]; 200 nM) of 7%. For the same compound, the inhibition at 10 µM ([14]; 10 μM) was 90%, the inhibition at 0.2 µM ([15]; 200 nM) was -12% and the inhibition at 10 µM ([15]; 10 μM) was 23%. The inhibition at 0.2 µM ([16]; 200 nM) was 9%, the inhibition at 10 µM ([16]; 10 μM) was 54% and the inhibition at 0.2 µM ([17]; 200 nM) was 76%. It also gave an inhibition at 10 µM ([17]; 10 μM) of 101%, an inhibition at 0.2 µM ([18]; 200 nM) of 82% and an inhibition at 10 µM ([18]; 10 μM) of 98%. The Papp A→B at 1 h, 5 μM [19] was 57 ×10⁻⁶ cm/s, the Papp B→A at 1 h, 5 μM [19] was 14 ×10⁻⁶ cm/s and the “Recover rate (%)” value [20] was 96%. It also gave an efflux ratio at 1 h, 5 µM [21] of 0.2.
